According to paper PMC5075699:
“And” between values parts separate entries of the source, which are not always exact repeats. Identical values can stand only once.

Key:
[1] = system: prion disease mouse models; conditions: in vivo, ip, 0.25 mg/kg; cited from earlier work
rodents = system: rodents; set-up: method as in Sidrauski et al., 2013; conditions: delivered immediately after a stimulus or behavioral task; ref Sidrauski et al., 2013; cited from earlier work
[2] = set-up: method as in Di Prisco et al., 2014; conditions: acute treatment; ref Di Prisco et al., 2014; cited from earlier work
nontransgenic mice [3] = experiment: Contextual fear conditioning; conditions: ISRIB 2.5mpk, individual mice
hAPP-J20 (J20) mice = experiment: Morris water maze #2, hAPP-J20 mice; conditions: for %Target Quadrant / Crossing Frequency / Latency to Target / Training Latency: ISRIB 2.5mpk in DMSO/PEG
nontransgenic (NTG) mice = experiment: Morris water maze #2, nontransgenic (NTG) mice; conditions: for %Target Quadrant / Crossing Frequency / Latency to Target / Training Latency: ISRIB 2.5mpk in DMSO/PEG
nontransgenic mice [4] = experiment: Pilot Morris water maze #1 (spatial learning and memory); conditions: 0.1 mpk i.p. after each training trial; vs vehicle
[5] = Fig 4E, NTG mice, individual mice
[6] = Fig 4F, NTG mice, individual animals

O=C(COc1ccc(Cl)cc1)NC1CCC(NC(=O)COc2ccc(Cl)cc2)CC1 (stereo not shown) [ISRIB]
extension of survival [1]: approximately 1 week | effect on spatial and fear memory (rodents): enhance spatial and fear memory | effect on object-place learning [2]: interfered with proper object-place learning | Post-Shock (nontransgenic mice [3]; Fig 3A): 6.61 and 2.22 and 0 and 2.28 and 2.39 and 18.72 and 31.39 and 15.72 and 15.83 and 8.22 and 17.11 and 7.56 and 7 and 11.33 and 13.11 and 8.28 and 20.33 and 19.33 and 29.44 and 32.33 and 27.56 | Pre-Shock (nontransgenic mice [3]; Fig 3A): 1.67 and 0 and 0.97 and 2.33 and 0.86 and 33.64 and 1.83 and 1.44 and 1.08 | 1st 4 min context (nontransgenic mice [3]; Fig 3B): 11.1 and 4.75 and 30.01 and 15.49 and 4.44 and 18.51 and 26.85 and 38.13 and 45.92 and 9.61 and 2.13 and 12.76 and 6.75 and 15.99 and 18.96 and 31.54 and 27.17 and 21.38 and 27.25 and 14.79 and 16.25 and 41.57 and 18.94 and 33.54 and 25.69 and 47.14 and 19.89 and 27.42 and 56.35 and 28.89 | 2nd 4 min context (nontransgenic mice [3]; Fig 3B): 31.29 and 5.25 and 33.13 and 30.94 and 0 and 19.46 and 29.43 and 31.87 and 22.86 and 6.96 and 10.43 and 9.1 and 5.42 and 17.46 and 22.21 and 24.07 and 43.26 and 31.68 and 31.22 and 19.13 and 25.14 and 47.79 and 41.86 and 24.76 and 22.15 and 38.53 and 12.88 and 14.39 and 38.49 and 10.29 | 8 min context (nontransgenic mice [3]; Fig 3B): 21.54 and 5 and 31.79 and 23.22 and 2.22 and 18.99 and 28.14 and 35.24 and 34.55 and 8.28 and 6.28 and 10.93 and 6.08 and 16.72 and 20.58 and 27.86 and 35.22 and 26.54 and 29.26 and 16.96 and 20.81 and 44.68 and 30.75 and 29.15 and 24.19 and 43.22 and 16.38 and 20.9 and 47.8 and 19.59 | learning during the training trials (hAPP-J20 (J20) mice; 0.25 or 2.5 mpk): did not observe an improvement in learning | spatial memory treatment effects (hAPP-J20 (J20) mice; 72 hour probe trial, 0.25 or 2.5 mpk): did not observe significantly positive treatment effects | %Target Quadrant (hAPP-J20 (J20) mice; Fig 4E, individual mice): 31.3647% and 28.3617% and 19.6864% and 31.5871% and 22.6894% and 33.1443% and 19.1302% and 8.787% and 27.8056% and 30.5861% and 20.9098% and 21.7996% | Crossing Frequency (hAPP-J20 (J20) mice; Fig 4E, individual mice): 3 and 2 and 0 and 1 | Latency to Target (hAPP-J20 (J20) mice; Fig 4E, individual mice): 3.136 and 38.1715 and 60 and 8.542 and 51.318 and 28.5619 and 11.0777 | Crossing Frequency (hAPP-J20 (J20) mice; Fig 4F, individual animals): 3 and 1 and 0 and 4 | Latency to Target (hAPP-J20 (J20) mice; Fig 4F, individual animals): 7.941 and 17.6843 and 60 and 4.8048 and 4.538 and 12.7461 and 25.1585 and 9.076 | %Target Quadrant (hAPP-J20 (J20) mice; Fig 4F, individual mice): 32.9218% and 31.4759% and 23.2455% and 26.026% and 17.9068% and 37.2595% and 13.013% and 23.1343% and 9.676% and 36.9258% and 20.7986% and 27.6944% | Training Latency (hAPP-J20 (J20) mice; Trial 8, individual mice (Fig 4A-D)): 120.187 (5×) and 47.5142 and 79.2125 and 54.9216 and 27.9613 and 39.306 and 87.0204 and 3.937 | Training Latency (hAPP-J20 (J20) mice; Trial 9, individual mice (Fig 4A-D)): 119.052 and 25.2252 and 42.5759 and 34.301 and 6.673 and 11.3447 and 10.8775 and 120.187 (2×) and 96.2296 and 50.5839 and 5.272 | Training Latency (hAPP-J20 (J20) mice; Trial 10, individual mice (Fig 4A-D)): 11.3447 and 82.5492 and 23.8906 and 120.187 (3×) and 29.1625 and 43.9106 and 12.3457 and 39.2392 and 38.9056 and 8.008 | Training Latency (hAPP-J20 (J20) mice; Trial 11, individual mice (Fig 4A-D)): 26.293 and 117.251 and 19.4861 and 120.187 (5×) and 28.2282 and 11.4781 and 13.4134 and 31.1645 | MWM training latency NTG Trial*ISRIB (linear mixed effects regression model) (nontransgenic (NTG) mice; 0.25 mpk in 1% DMSO/saline, vs vehicle): −0.1 sec/day | %Target Quadrant (nontransgenic (NTG) mice; [5]): 53.4979% and 33.8116% and 21.5771% and 31.9208% and 40.8186% and 33.2555% and 14.7926% and 38.7054% and 50.3837% and 29.8076% and 34.8126% and 37.4819% | Crossing Frequency (nontransgenic (NTG) mice; [5]): 7 and 3 and 0 and 4 and 2 and 1 and 6 | Latency to Target (nontransgenic (NTG) mice; [5]): 12.9463 and 11.6116 and 60 and 7.741 and 3.4034 and 4.6046 and 17.8846 and 5.806 and 58.7921 and 9.409 and 18.6186 | %Target Quadrant (nontransgenic (NTG) mice; Fig 4F, NTG mice, individual mice): 51.4959% and 27.4719% and 32.1433% and 20.02% and 23.9128% and 54.4989% and 37.8156% and 28.8066% and 47.6032% and 24.024% and 39.8176% | Crossing Frequency (nontransgenic (NTG) mice; [6]): 7 and 3 and 5 and 2 and 1 | Latency to Target (nontransgenic (NTG) mice; [6]): 10.7441 and 4.6046 and 20.3537 and 7.474 and 3.27 and 20.1535 and 5.6056 and 21.1545 and 23.6904 and 21.4214 and 20.287 and 19.2859 | Training Latency (nontransgenic (NTG) mice; NTG mice, Trial 8, individual mice (Fig 4A-D)): 2.936 and 11.4781 and 15.9493 and 10.5439 and 6.139 and 7.074 and 4.8048 and 33.3667 and 6.74 and 48.7821 and 3.871 and 75.7424 | Training Latency (nontransgenic (NTG) mice; NTG mice, Trial 9, individual mice (Fig 4A-D)): 45.6457 and 6.273 and 8.742 and 30.297 and 12.6793 and 5.739 and 57.0571 and 4.8048 and 11.8118 and 7.341 and 70.1368 and 5.138 | Training Latency (nontransgenic (NTG) mice; NTG mice, Trial 10, individual mice (Fig 4A-D)): 3.737 and 4.004 and 28.295 and 62.9963 and 3.67 and 21.6216 and 5.939 and 22.6226 and 8.542 and 19.4861 and 60 and 4.271 | Training Latency (nontransgenic (NTG) mice; NTG mice, Trial 11, individual mice (Fig 4A-D)): 31.7651 and 42.1088 and 14.281 and 24.7581 and 7.074 and 6.54 and 24.024 and 52.7861 and 11.6116 and 20.7541 and 39.5062 and 3.6036 | learning during the training trials (nontransgenic (NTG) mice; NTG mice, 0.25 or 2.5 mpk): did not observe an improvement in learning | spatial memory treatment effects (nontransgenic (NTG) mice; NTG mice, 72 hour probe trial, 0.25 or 2.5 mpk): did not observe significantly positive treatment effects | MWM training distance Trial*ISRIB (linear mixed effects regression model) (nontransgenic mice [4]): -35 cm/day
